# Patent US11286268B1, “EIF4E-inhibiting compounds and methods” (EFFECTOR THERAPEUTICS, INC., priority 2019, dated 2022)
# Like-named read-outs stand apart in the source and are kept apart here.
# Biological target: recombinant eIF4E (Homo sapiens (Human), UniProt P06730)
# Assay: Fluorescence polarization competition assay for eIF4E binding potency
# In short: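 IC50 derived from fluorescence polarization over an 8-point, 3-fold compound series after 30 min room-temperature equilibration in the dark. Mix: eIF4E 75 nM pre-bound 5 min to 20 nM EDA-m^7GDP-ATTO-550; buffer 20 mM Tris pH 7.5, 100 mM NaCl, 1 mM DTT, 0.02% Tween-20; DMSO 1%.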
# [1] = fluorescence polarization competition, 75 nM recombinant eIF4E, 20 nM EDA-m7GDP-ATTO-550, IC50 class, read-out: elF4E FP
# [2] = inhibition of eIF4E/EDA-m7GDP-ATTO-550 binding by 50%, Table 4B calculated values, read-out: IC50
# [3] = inhibition of eIF4E/EDA-m7GDP-ATTO-550 binding, calculated IC50 values, Table 4B, read-out: IC50
# Chain of recombinant eIF4E (P06730 whole entry): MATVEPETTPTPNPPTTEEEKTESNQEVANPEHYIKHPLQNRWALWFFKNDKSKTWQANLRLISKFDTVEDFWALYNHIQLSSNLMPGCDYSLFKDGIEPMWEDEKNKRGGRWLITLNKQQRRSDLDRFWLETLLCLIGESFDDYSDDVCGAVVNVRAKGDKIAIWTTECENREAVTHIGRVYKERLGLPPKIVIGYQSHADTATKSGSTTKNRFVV
SMILES,IC50 [1] [nM],IC50 [2] [nM],IC50 [3] [nM]
CCN(c1ncc2nc(C)n(CC#Cc3ccc(Cl)cc3-c3ccnc4c(C(=O)O)csc34)c(=O)c2c1C#N)C1CCN(CC(C)(F)F)CC1 [compound 1177],< 50,34.2,–
C#Cc1c(C(=O)O)cccc1-c1cc(Cl)ccc1OCCn1c(C)nc2ccc(C(F)F)c(C#N)c2c1=O [compound 55],< 50,21.6,–
CSc1cc(C(=O)O)cc(-c2cc(Cl)ccc2OCCn2cnc3cnc(C#N)cc3c2=O)c1 [compound 95],> 1000,2860,–
Cc1cc(-c2cc(Cl)ccc2OCCn2c(C)nc3cnc(C4CC4)c(C#N)c3c2=O)c2scc(C(=O)NS(C)(=O)=O)c2n1 [compound 385],< 50,39.5,–
CO[C@H]1C[C@@H](c2ncc3nc(C)n(CCOc4ccc(Cl)cc4-c4cc(C)nc5c(C(=O)O)csc45)c(=O)c3c2C#N)C1 [compound 1152],< 50,3.8,–
Cc1ccc(N(C)c2c(Cl)cc3nc(C)n(CCOc4ccc(Cl)cc4-c4cc(C)nc5c(C(=O)O)csc45)c(=O)c3c2C#N)cn1 [compound 959],< 50,14.8,–
Cc1nc2cc(S(C)(=O)=O)c(F)c(C#N)c2c(=O)n1CCOc1ccc(Cl)cc1-c1ccnc2c(C(=O)O)csc12 [compound 278],< 50,12.7,–
Cc1nc2c(F)cc(C(F)F)c(C#N)c2c(=O)n1CC#Cc1ccc(Cl)cc1-c1ccnc2c(C(=O)O)csc12 [compound 557],< 50,6.4,–
N#Cc1cc2c(=O)n(CCOc3ccc(Cl)cc3-c3cc(C(=O)O)ccc3C3CC3)cnc2cn1 [compound 92],> 1000,> 3000,–
Cc1nc2cnc(N(C)C3CCN(CCC(C)(F)F)CC3)c(C#N)c2c(=O)n1CC#Cc1ccc(Cl)cc1-c1ccnc2c(C(=O)O)csc12 [compound 1190],< 50,–,7.3
Cc1c(F)c2cc(C(F)(F)F)cc(C#N)c2c(=O)n1CCOc1ccc(Cl)cc1-c1ccnc2c(C(=O)O)csc12 [compound 262],< 50,–,–
Cc1nc2cnc(N3CC4(C3)CN(C3COC3)C4)c(C#N)c2c(=O)n1CC#Cc1ccc(Cl)cc1-c1ccnc2c(C(=O)O)csc12 [compound 1322],–,–,11.2
N#Cc1cc2c(=O)n(CCOc3ccc(Cl)cc3-c3nc(C(=O)O)cs3)cnc2cn1 [compound 81],> 1000,4220,–
Cc1nc2cnc(N3CCC4(CC3)CN(CC(C)(F)F)C4)c(C#N)c2c(=O)n1CC#Cc1ccc(Cl)cc1-c1ccnc2c(C(=O)NS(=O)(=O)c3cccnc3)csc12 [compound 1412],–,–,6.71
Cc1nc2cnc(C3CCN(CC(F)(F)F)CC3)c(C#N)c2c(=O)n1CC#Cc1ccc(Cl)cc1-c1ccnc2c(C(=O)O)csc12 [compound 1116],< 50,17.1,–
Cc1nc2cc(C(F)(F)F)c(CN3CCCC3)c(C#N)c2c(=O)n1CCOc1ccc(Cl)cc1-c1ccnc2c(C(=O)O)csc12 [compound 526],50 to 1000,64.1,–
Cc1nc2cc(CN(C)C)c(C(F)(F)F)c(C#N)c2c(=O)n1CC#Cc1ccc(Cl)cc1-c1ccnc2c(C(=O)O)csc12 [compound 623],< 50,4.77,–
Cc1cc(-c2cc(Cl)ccc2OCCn2c(C)nc3cc(F)c(C)c(C#N)c3c2=O)c2scc(C(=O)O)c2n1 [compound 368],< 50,41.1,–
Cc1nc2cnc(N(C)C3CCN([C@H]4C[C@@H](OC(F)F)C4)CC3)c(C#N)c2c(=O)n1CC#Cc1ccc(Cl)cc1-c1ccnc2c(C(=O)O)csc12 [compound 1172],< 50,14.2,–
CCc1cc(-c2cc(Cl)ccc2OCCn2c(C)nc3cc(C(F)(F)F)c(CN4CCN(C)CC4)c(C#N)c3c2=O)c2scc(C(=O)O)c2n1 [compound 637],< 50,16.6,–
Cc1nc2cnc(C3CCC(N(C)CC(F)(F)F)C3)c(C#N)c2c(=O)n1CCOc1ccc(Cl)cc1-c1ccnc2c(C(=O)O)csc12 (centres unmarked) [compound 1427],–,–,14.3
Cc1nc2c(F)cc(C(F)F)c(C#N)c2c(=O)n1CCOc1ccc(Cl)cc1-c1ccnc2c(C(=O)NS(C)(=O)=O)csc12 [compound 1945],–,–,44.9
Cc1cc(-c2cc(Cl)ccc2OCCn2c(C)nc3cc(C(F)(F)F)cnc3c2=O)c2scc(C(=O)O)c2n1 [compound 337],< 50,25.7,–
Cc1nc2cnc(N(C)C3CCN(C4CC4)C4(CC4)C3)c(C#N)c2c(=O)n1CC#Cc1ccc(Cl)cc1-c1ccnc2c(C(=O)O)csc12 (centres unmarked) [compound 1496],–,–,32.5
Cc1cc(-c2cc(Cl)ccc2OCCn2c(C)nc3cc(Cl)c(CCN(C)C)c(C#N)c3c2=O)c2scc(C(=O)O)c2n1 [compound 609],< 50,33.1,–
N#Cc1cc2c(=O)n(CCOc3ccc(Cl)cc3-c3ccc(F)c(C(=O)O)c3F)cnc2cn1 [compound 91],50 to 1000,287,–
CCc1cc(-c2cc(Cl)ccc2OCCn2c(C)nc3cc(C(F)(F)F)c(-c4cccnc4)c(C#N)c3c2=O)c2scc(C(=O)O)c2n1 [compound 1013],< 50,18.5,–

SMILES,IC50 [1] [nM],IC50 [2] [nM],IC50 [3] [nM]
Cc1nc2cc(C(F)(F)F)c(-c3ccncc3)c(C#N)c2c(=O)n1CCOc1ccc(Cl)cc1-c1cccc(C(=O)O)c1 [compound 386],< 50,25.4,–
Cc1cc(-c2cc(Cl)ccc2OCCn2c(C)nc3cc(C(F)(F)F)c(N4CC5(CN(C)C5)C4)c(C#N)c3c2=O)c2sc(C)c(C(=O)O)c2n1 [compound 1420],–,–,6.33
Cc1nc2cncc(SCCN(C)C)c2c(=O)n1CCOc1ccc(Cl)cc1-c1ccnc2c(C(=O)O)csc12 [compound 1331],–,–,91.8
Cc1nc2c(-c3cncnc3)ccc(C#N)c2c(=O)n1CCOc1ccc(Cl)cc1-c1ccnc2c(C(=O)O)csc12 [compound 204],< 50,44.4,–
Cc1nc2cc(C(C)(F)F)cc(C#N)c2c(=O)n1CCOc1ccc(Cl)cc1-c1ccnc2c(C(=O)O)csc12 [compound 217],50 to 1000,55.4,–
COc1cc2nc(C)n(CCOc3ccc(Cl)cc3-c3cc(C)nc4c(C(=O)O)c(C)sc34)c(=O)c2c(C#N)c1N1CCN(C)CC1 [compound 1208],< 50,–,48.9
Cc1nc2cnc(N3CCN(CC(C)(C)F)CC3)c(C#N)c2c(=O)n1CCOc1ccc(Cl)cc1-c1ccnc2c(C(=O)NS(C)(=O)=O)csc12 [compound 1516],–,–,17
Cc1cc(-c2cc(Cl)ccc2OCCn2c(C)nc3cc(Cl)c(N4CCN(C)CC4)c(C#N)c3c2=O)c2sc(C)c(C(=O)O)c2n1 [compound 741],< 50,15.2,–
O=C(O)c1cccc(-c2cc(Cl)ccc2OCCn2cnc3c(C(F)(F)F)nccc3c2=O)c1 [compound 1993],–,–,412
Cc1nc2cc(CN(C)C)c(Cl)c(C#N)c2c(=O)n1CCOc1ccc(Cl)cc1-c1ccnc2c(C(=O)O)csc12 [compound 516],< 50,34.4,–
Cc1nc2cnc(N(C)[C@@H]3[C@@H]4CN(CC(F)F)C[C@@H]43)c(C#N)c2c(=O)n1CC#Cc1ccc(Cl)cc1-c1ccnc2c(C(=O)O)csc12 [compound 1407],–,–,24.7
Cc1nc2cc(C(N)=O)cc(C#N)c2c(=O)n1CCOc1ccc(Cl)cc1-c1ccnc2c(C(=O)O)csc12 [compound 317],< 50,17.1,–
Cc1cc(-c2cc(Cl)ccc2OCCn2c(C)nc3cc(C)c(CN4CCN(C)CC4)c(C#N)c3c2=O)c2scc(C(=O)O)c2n1 [compound 718],< 50,20.1,–
Cc1cc(-c2cc(Cl)ccc2C#CCn2c(C)nc3cncc(C#N)c3c2=O)c2scc(C(=O)O)c2n1 [compound 601],50 to 1000,52,–
Cc1nc2ccc(S(=O)(=O)N(C)Cc3ccccc3)c(C#N)c2c(=O)n1CCOc1ccc(Cl)cc1-c1ccnc2c(C(=O)O)csc12 [compound 283],< 50,40.6,–
Cc1nc2cnc(N(C)C3CCN(CC4(C(F)(F)F)CC4)CC3)c(C#N)c2c(=O)n1CC#Cc1ccc(Cl)cc1-c1ccnc2c(C(=O)O)csc12 [compound 1587],–,–,39.7
Cc1sc2c(-c3cc(Cl)ccc3OCCn3c(C)nc4cc(C(F)(F)F)c(C5CCNCC5)c(C#N)c4c3=O)ccnc2c1C(=O)O [compound 887],< 50,20.1,–
Cc1cc(-c2cc(Cl)ccc2OCCn2c(C)nc3c(C)nc(-c4ccccc4)c(C#N)c3c2=O)c2scc(C(=O)O)c2n1 [compound 737],< 50,12.3,–
Cc1nc2cnc(N(C)C3CCN(CC(F)(F)F)CC3)c(C#N)c2c(=O)n1CC#Cc1ccc(Cl)cc1-c1ccnc2c(C(=O)NS(=O)(=O)c3cn(C)cn3)csc12 [compound 1667],–,–,12.2
Cc1cc(-c2cc(Cl)ccc2OCCn2c(C)nc3cc(S(C)(=O)=O)c(N4CCN(C)CC4)c(C#N)c3c2=O)c2scc(C(=O)O)c2n1 [compound 1295],–,–,13.4
CC(=O)CN1CCC(N(C)c2ncc3nc(C)n(CC#Cc4ccc(Cl)cc4-c4ccnc5c(C(=O)O)csc45)c(=O)c3c2C#N)CC1 [compound 1519],–,–,15.3
Cc1nc2cncc(C#N)c2c(=O)n1CCOc1ccc(Cl)cc1-c1cccc(P(=O)(O)O)c1 [150FA],–,63.1,–
Cc1nc2c(C#N)ccc(C#N)c2c(=O)n1CCOc1ccc(Cl)cc1-c1ccnc2c(C(=O)O)csc12 [compound 312],50 to 1000,75.6,–
Cc1nc2cc(C(F)(F)F)cc(C#N)c2c(=O)n1CCOc1ccc(C#N)nc1-c1ccnc2c(C(=O)O)csc12 [compound 292],50 to 1000,203,–
Cc1cc(-c2cc(Cl)ccc2C#CCn2c(C)nc3cc(C(F)(F)F)c(CN4CCN(C)CC4)c(C#N)c3c2=O)c2scc(C(=O)O)c2n1 [compound 616],< 50,2.45,–
CCc1cc(-c2cc(Cl)ccc2OCCn2c(C)nc3cc(CN(C)C)c(OC(F)F)c(C#N)c3c2=O)c2scc(C(=O)O)c2n1 [compound 639],< 50,–,–
